{"source": "paper PMC2748165", "about": "(Biochemical pharmacology, 2009)", "key": {"P-gp [1]": {"biological_target": "T1, P-gp (Homo sapiens, UniProt P08183)", "T1 sequence (P08183 whole entry)": "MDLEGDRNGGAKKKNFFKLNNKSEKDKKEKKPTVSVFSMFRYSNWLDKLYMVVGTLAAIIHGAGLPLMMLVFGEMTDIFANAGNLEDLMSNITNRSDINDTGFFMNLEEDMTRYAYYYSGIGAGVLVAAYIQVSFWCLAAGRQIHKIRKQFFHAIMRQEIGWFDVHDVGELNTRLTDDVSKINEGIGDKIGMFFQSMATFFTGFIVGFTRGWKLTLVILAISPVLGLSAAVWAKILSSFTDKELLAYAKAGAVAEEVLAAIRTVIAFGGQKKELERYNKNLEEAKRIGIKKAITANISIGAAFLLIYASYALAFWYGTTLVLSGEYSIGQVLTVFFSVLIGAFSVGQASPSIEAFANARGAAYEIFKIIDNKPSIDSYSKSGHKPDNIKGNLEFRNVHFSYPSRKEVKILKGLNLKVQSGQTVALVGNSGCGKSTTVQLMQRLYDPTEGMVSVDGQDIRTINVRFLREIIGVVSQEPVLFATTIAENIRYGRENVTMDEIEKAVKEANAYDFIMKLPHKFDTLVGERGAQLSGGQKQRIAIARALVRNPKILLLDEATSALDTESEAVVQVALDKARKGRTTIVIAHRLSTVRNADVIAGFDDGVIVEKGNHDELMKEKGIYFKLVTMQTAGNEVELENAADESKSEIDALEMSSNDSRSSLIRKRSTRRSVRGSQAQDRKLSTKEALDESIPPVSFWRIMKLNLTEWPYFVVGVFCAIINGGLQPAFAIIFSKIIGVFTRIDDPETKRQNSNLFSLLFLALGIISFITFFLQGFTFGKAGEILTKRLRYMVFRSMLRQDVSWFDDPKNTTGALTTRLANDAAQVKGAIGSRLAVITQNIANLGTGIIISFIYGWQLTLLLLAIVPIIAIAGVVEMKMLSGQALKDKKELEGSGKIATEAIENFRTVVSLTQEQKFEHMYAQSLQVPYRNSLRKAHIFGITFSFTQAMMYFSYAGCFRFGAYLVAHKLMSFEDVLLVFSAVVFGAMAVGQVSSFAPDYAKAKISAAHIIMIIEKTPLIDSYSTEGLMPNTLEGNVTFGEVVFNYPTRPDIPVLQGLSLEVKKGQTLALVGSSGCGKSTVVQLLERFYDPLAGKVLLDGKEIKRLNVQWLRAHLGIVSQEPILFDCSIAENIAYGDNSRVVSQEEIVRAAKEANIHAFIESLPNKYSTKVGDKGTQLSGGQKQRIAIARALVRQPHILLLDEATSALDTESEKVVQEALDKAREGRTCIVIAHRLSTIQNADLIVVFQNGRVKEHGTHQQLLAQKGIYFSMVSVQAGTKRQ", "assay": "Inhibition of [3H]-paclitaxel uptake by placental inside-out vesicles"}, "[2]": {"tested_on": "P-gp of CEM leukemia cells", "conditions": "cited from earlier work"}, "P-gp [3]": {"biological_target": "T1, P-gp", "type": "biochemical"}, "[4]": {"conditions": "dual perfusion of human placental lobule; cited from earlier work"}, "P-gp [5]": {"biological_target": "T1, P-gp", "assay": "in vitro"}, "[6]": {"conditions": "placental IOVs 0.05 mg/mL, 20–500 nM [3H] paclitaxel, n = 10, mean ± SEM"}}}
{"smiles": "COc1ccc(CCN(C)CCCC(C#N)(c2ccc(OC)c(OC)c2)C(C)C)cc1OC", "note": "(stereo not drawn) [verapamil]", "values": [{"measurement": "inhibition at 1 min, 2 mM", "setting": "P-gp [1]", "value": "99 ± 9", "unit": "%"}]}
{"smiles": "CC(=O)O[C@H]1C(=O)[C@@]2(C)[C@H]([C@H](OC(=O)c3ccccc3)[C@]3(O)C[C@H](OC(=O)[C@H](O)[C@@H](NC(=O)c4ccccc4)c4ccccc4)C(C)=C1C3(C)C)[C@]1(OC(C)=O)CO[C@@H]1C[C@@H]2O", "note": "[paclitaxel]", "values": [{"measurement": "apparent Kt of paclitaxel transport, CEM cells overexpressing P-gp", "setting": "[2]; cells passaged in vinblastine, multidrug resistant, overexpressing P-gp", "value": "63 ± 46", "unit": "nM"}, {"measurement": "Kt of paclitaxel transport, parental CEM cells", "setting": "[2]; parental cells", "value": "144 ± 56", "unit": "nM"}, {"measurement": "ATP dependent uptake of [3H]-paclitaxel into IOVs, mean", "setting": "P-gp [3]; 200 individual placentas, mean", "value": 23, "unit": "pmol*mg protein^−1min^−1"}, {"measurement": "ATP dependent uptake of [3H]-paclitaxel into IOVs, range", "setting": "P-gp [3]; 200 individual placentas, range", "value": "1–140 pmol*mg protein^−1min^−1"}, {"measurement": "Vmax of ATP-dependent [3H] paclitaxel uptake", "setting": "P-gp [3]; [6]", "value": "20 ± 3", "unit": "pmol*mg protein^−1min^−1"}, {"measurement": "apparent Kt of ATP-dependent [3H] paclitaxel uptake", "setting": "P-gp [3]; [6]", "value": "66 ± 38", "unit": "nM"}]}
{"smiles": "CCC(=O)C(CC(C)N(C)C)(c1ccccc1)c1ccccc1", "note": "(stereo not drawn) [methadone]", "values": [{"measurement": "rate of transfer from the maternal to fetal circuit", "setting": "[4]", "value": "29.4 ± 4.6", "unit": "%"}, {"measurement": "inhibition at 1 min", "setting": "P-gp [5]", "value": 60, "unit": "%"}]}
